Measurements reported in PMC7367873, “Dissecting the sequence determinants for dephosphorylation by the catalytic subunits of phosphatases PP1 and PP2A” (Nature Communications, 2020).

The substances below were run on GFP-14-3-3β and its binding proteins (assay: GFP-14-3-3β co-IP with LC-MS/MS label-free quantification, untreated versus PP1c-treated). Conditions: GFP-14-3-3β co-IP LC-MS/MS; PP1 vs untreated; student's t-test; label-free quantification, 3 replicates each.
Set-up: species or system human
Experimental: (§1) HeLa Kyoto cells expressing transiently transfected pEGFP(C1)-14-3-3β or pEGFP(C1) control plasmid, were incubated with 20 nM Calyculin A (# 9902 S, Cell Signaling Technology) for 12 min. Cells were washed twice on ice with cold PBS and after addition of 500 µL lysis buffer (100 mM NaCl, 10 mM Tris, 0.1% IGEPAL, 1 mM EDTA, 1 mM EGTA, 20 nM Calyculin A, 1x cOmplete Mini protease inhibitor cocktail (Sigma), 1 mM DTT, 1 mM MnCl2) cells were scraped from plates, lysed by 10 pushes through an injection needle (21 G, BD) and the insoluble fraction was pelleted by centrifugation (10 min, 10^4 rcf, 4 °C). Supernatants were then subjected to incubation with 1 µM recombinant phosphatase or buffer for 1 h at 30 °C. Next, we subjected samples to immunoprecipitation using α-GFP nanobodies covalently coupled to agarose beads (2 h, 4 °C, obtained from the EMBL PEPcore Core Facility). Beads were then washed three times with lysis buffer and samples were eluted in 1x LDS sample buffer (Thermo Fisher Scientific) by heating to 70 °C for 10 min.
(§2) The samples were then reduced with 25 mM dithiothreitol (10 min at 70 °C) and alkylated with 55 mM chloroacetamide (room temperature, 30 min, in the dark). Proteins were run on a precast 4–12% NuPAGE gel (ThermoFisher Scientific) for about 1 cm to concentrate the sample prior to in-gel tryptic digestion, which was performed according to the standard procedures. The peptides obtained were dried to completeness and resuspended in 12 µL of buffer A (0.1% FA), and 5 µL of sample were injected per MS measurement. The experiment was carried out in three independent replicates.
(§3) The samples were analyzed by LC-MS/MS on a Dionex Ultimate 3000 nano-HPLC coupled online to a Fusion Lumos Tribrid mass spectrometer (Thermo Fisher Scientific). Peptides were delivered to a trap column (75 µm × 2 cm, packed in-house with 5 µm C18 resin; Reprosil PUR AQ, Dr. Maisch) and washed using 0.1% FA at a flow rate of 5 µL/min for 10 min. Subsequently, peptides were transferred to an analytical column (75 µm × 45 cm, packed in-house with 3 µm C18 resin; Reprosil Gold) applying a flow rate of 300 nL/min and separated using a 60 min linear gradient from 4% to 32% LC solvent B (0.1% FA, 5% DMSO in ACN) in LC solvent A (0.1% FA in 5% DMSO). The eluate from the analytical column was sprayed via a stainless steel emitter (Thermo Fisher Scientific) at a source voltage of 2.1 kV into the mass spectrometer. The transfer capillary was heated to 275 °C. The Fusion Lumos was operated in positive ionization mode and data-dependent acquisition (DDA), automatically switching between MS1 and MS2 spectrum acquisition. Full scan MS1 spectra were recorded in the Orbitrap from 360 to 1300 m/z at a resolution of 60k (automatic gain control (AGC) target value of 4e5 charges, maximum injection time (maxIT) of 50 ms). Up to 20 peptide precursors were isolated (isolation window, 1.7 m/z; maximum injection time, 25 ms; and AGC value, 1e5), fragmented by high-energy collision-induced dissociation (HCD) using 30% normalized collision energy (NCE), and analyzed at a resolution of 15k in the Orbitrap. Precursor ions that were singly charged, unassigned, or with charge states >6+ were excluded. The dynamic exclusion duration of fragmented precursor ions was 20 s.
(§4) Peptide and protein identification and LFQ were performed using MaxQuant software (version 1.6.1.0)[64] by searching the data against all canonical protein sequences as annotated in the Swissprot reference database (human proteins only, 20193 entries, downloaded 22 March 2016, internally annotated with PFAM domains) using the embedded search engine Andromeda[65]. The MaxQuant search was performed using two variable modifications; oxidation of methionine and N-terminal protein acetylation. Carbamidomethylation on cysteines was specified as a fixed modification. Trypsin (Trypsin/P) was specified as the proteolytic enzyme with up to two allowed missed cleavage sites.

| Difference (log2), PP1 vs untreated [log2] | Substance |
| --- | --- |
| -0.2284 | KIAA1671 |
| -0.6623 | TOP2A |

The next lines start with the substance.

| Substance | Difference (log2), PP1 vs untreated [log2] |
| --- | --- |
| TUBB4B | -0.5591 |
| HSPB1 | -0.1455 |
| PRPF8 | -0.1499 |
| NUP205 | -0.6457 |
| CHD4 | -0.3658 |

Same assay, conditions: PP1 vs untreated; LFQ intensities, replicates 1-3

| Difference (log2), PP1 vs untreated [log2] | Substance |
| --- | --- |
| -1.929 | SMARCA5 |
| -1.61 | SPTBN1 |
| -2.029 | RANBP2 |
| -0.8647 | PMS2 |
| -1.091 | HSPA9 |
| -1.861 | DOCK11 |
| -1.535 | MLEC |

Second part, the substance before the results:

| Substance | Difference (log2), PP1 vs untreated [log2] |
| --- | --- |
| YWHAQ | -1.354 |
| RPA3 | -1.739 |
| HEATR1 | -1.168 |
| NONO | -0.8439 |
| TAF15 | -1.048 |

Same assay, conditions: PP1 vs untreated; LFQ intensities; 3 replicates each

| Difference (log2), PP1 vs untreated [log2] | Substance |
| --- | --- |
| 0.4607 | LAMA5 |
| 0.4617 | CEP170 |
| 0.3367 | EEF1G |
| 0.3393 | TTC27 |

Continued, substance first:

| Substance | Difference (log2), PP1 vs untreated [log2] |
| --- | --- |
| CFL1 | 0.4849 |
| PRRC2A | 0.5007 |
| HNRNPAB | 0.4916 |
| CORO1C | 0.3782 |
| RNF213 | 0.6499 |
| FASN | 0.3561 |
| ASCC3 | 0.6228 |
| GCN1L1 | 0.3397 |

Same assay, conditions: PP1 vs untreated; label-free quantification

| Difference (log2), PP1 vs untreated [log2] | Substance |
| --- | --- |
| 1.01 | MCM7 |
| 0.8043 | LARP4B |
| 0.7956 | AGO2 |

The next lines start with the substance.

| Substance | Difference (log2), PP1 vs untreated [log2] |
| --- | --- |
| MYO5B | 1.198 |
| IMPDH2 | 1.157 |
| SVIL | 0.892 |
| DYNC1H1 | 0.7684 |

Same assay, conditions: log2 difference; pairwise comparison PP1 vs untreated, label-free quantification, 3 replicates each

| Difference (log2), PP1 vs untreated | Substance |
| --- | --- |
| 1.3203 | RFC3 |
| 1.396 | MYO5A |

Continued, substance first:

| Substance | Difference (log2), PP1 vs untreated |
| --- | --- |
| DDX60 | 1.555 |
| DPYSL3;CRMP1 | 2.547 |
| PFKP | 1.388 |
| PLEC | 1.29 |
| MGST3 | 1.301 |

Same assay, conditions: pairwise comparison PP1 vs untreated

| Difference (log2), PP1 vs untreated [log2] | Substance |
| --- | --- |
| 0.2293 | CSE1L |
| 0.1241 | VIM |
| 0.1166 | MKI67 |
| 0.0512 | MSH6 |
| 0.0453 | APC |

Further lines, the substance ahead of its results:

| Substance | Difference (log2), PP1 vs untreated [log2] |
| --- | --- |
| EIF4G1 | 0.2022 |
| ITPR3 | 0.1762 |

Same assay, conditions: pairwise comparison PP1 vs untreated, student's t-test; 3 replicates each; LC-MS/MS label-free quantification

| Difference (log2), PP1 vs untreated [log2] | Substance |
| --- | --- |
| -3.139 | RACGAP1 |
| -3.492 | SRSF1 |
| -2.037 | MARK1 |
| -2.609 | VPS13D |
| -2.154 | SRSF3 |
| -4.48 | WWTR1 |
| -2.088 | MARK3 |
| -5.178 | SRGAP1 |
| -4.834 | TSC2 |
| -5.0278 | DOCK7 |
| -2.858 | KIAA0930 |

Second part, the substance before the results:

| Substance | Difference (log2), PP1 vs untreated [log2] |
| --- | --- |
| FBXO22 | -4.621 |
| MAT2A | -2.199 |
| GAPDH | -4.245 |
| WWC1 | -3.748 |
| YAP1 | -2.787 |

What follows are substances tested on GFP-14-3-3β (assay: GFP-14-3-3β co-IP with LC-MS/MS, untreated GFP-14-3-3β versus GFP control (14-3-3 interactome)). Conditions: GFP-14-3-3β co-IP LC-MS/MS; untreated vs GFP; student's t-test; label-free quantification, 3 replicates each.
Assay type: binding, human
Experimental: as §1, §2, §3, §4

| Substance | Difference (log2), untreated vs GFP [log2] |
| --- | --- |
| KIAA1671 | 1.934 |
| TUBB4B | -0.8458 |
| HSPB1 | 0.3674 |
| TOP2A | 3 |
| PRPF8 | 2.212 |
| NUP205 | 1.662 |
| CHD4 | 2.168 |

Same assay, conditions: log2 difference; pairwise comparison untreated vs GFP, label-free quantification, 3 replicates each

| Substance | Difference (log2), untreated vs GFP |
| --- | --- |
| DDX60 | -0.05993 |
| DPYSL3;CRMP1 | -3.981 |
| PFKP | -0.1859 |
| RFC3 | -0.5439 |
| PLEC | -0.5388 |
| MYO5A | 0.8351 |
| MGST3 | 0.5005 |

Same assay, conditions: pairwise comparison untreated GFP-14-3-3β vs GFP, student's t-test; 3 replicates each; LC-MS/MS label-free quantification

| Substance | Difference (log2), untreated vs GFP [log2] |
| --- | --- |
| RACGAP1 | 6.129 |
| SRSF1 | 4.313 |
| MARK1 | 5.5786 |
| VPS13D | 3.223 |
| FBXO22 | 0.4281 |
| MAT2A | 0.8108 |
| SRSF3 | 2.78 |
| WWTR1 | 5.399 |
| GAPDH | 0.2696 |
| MARK3 | 4.732 |
| SRGAP1 | 5.319 |
| WWC1 | 3.436 |
| YAP1 | 8.338 |
| TSC2 | 4.192 |
| DOCK7 | 5.106 |
| KIAA0930 | 3.752 |

Same assay, conditions: pairwise comparison untreated vs GFP

| Substance | Difference (log2), untreated vs GFP [log2] |
| --- | --- |
| EIF4G1 | 0.6525 |
| CSE1L | -0.7283 |
| ITPR3 | -0.007222 |
| VIM | 0.4109 |
| MKI67 | 1.0535 |
| MSH6 | 1.062 |
| APC | 0.7989 |

Same assay, conditions: untreated vs GFP; LFQ intensities, replicates 1-3

| Substance | Difference (log2), untreated vs GFP [log2] |
| --- | --- |
| SMARCA5 | 3.229 |
| SPTBN1 | 0.3641 |
| YWHAQ | 7.871 |
| RPA3 | -0.7925 |
| RANBP2 | 2.443 |
| HEATR1 | 3.268 |
| NONO | 0.331 |
| PMS2 | 0.6772 |
| HSPA9 | -0.4978 |
| DOCK11 | 2.579 |
| MLEC | 0.8854 |
| TAF15 | 0.6755 |

Same assay, conditions: untreated vs GFP; LFQ intensities; 3 replicates each

| Substance | Difference (log2), untreated vs GFP [log2] |
| --- | --- |
| CFL1 | -1.088 |
| PRRC2A | 0.07605 |
| HNRNPAB | 0.1502 |
| CORO1C | -0.8872 |
| RNF213 | 0.8982 |
| LAMA5 | -1.96 |
| FASN | 1.462 |
| CEP170 | 2.101 |
| EEF1G | -0.3337 |
| ASCC3 | -0.1721 |
| GCN1L1 | 0.08 |
| TTC27 | 0.5169 |

Same assay, conditions: untreated vs GFP; label-free quantification

| Substance | Difference (log2), untreated vs GFP [log2] |
| --- | --- |
| MCM7 | 0.04561 |
| MYO5B | -1.223 |
| IMPDH2 | -1.172 |
| LARP4B | 0.9646 |
| SVIL | -1.069 |
| AGO2 | 0.05278 |
| DYNC1H1 | 3.605 |
